assay: all-hydrocarbon stapling by ring-closing olefin metathesis between S5/S5 (i,i+4) or R8/S5 (i,i+7) olefinic residues, Grubbs 1st-generation catalyst (10 mM in DCE per text; 6 mM per schemes), 2 x 2 h, on Rink Amide MBHA resin; details: the molecule shown is the open-chain precursor, 21-membered ring, 1,2-dichloroethane, 35.0 °C, 4.0 h, 60 steps

Row | SMILES | ring closure, overall yield [%]
1 | C=CCCC[C@](C)(NC(=O)[C@H](CCCCNC(=O)OC(C)(C)C)NC(=O)[C@@H](NC(=O)[C@H](CCC(=O)OC(C)(C)C)NC(=O)[C@](C)(CCCC=C)NC(=O)[C@H](COC(C)(C)C)NC(=O)[C@H](CC(C)C)NC(=O)[C@H](CCCCNC(=O)OC(C)(C)C)NC(=O)[C@@H](NC(=O)OCC1c2ccccc2-c2ccccc21)[C@@H](C)CC)[C@@H](C)OC(C)(C)C)C(=O)N[C@@H](CC(=O)NC(c1ccccc1)(c1ccccc1)c1ccccc1)C(=O)N[C@@H](CC(C)C)C(=O)N[C@@H](CCCCNC(=O)OC(C)(C)C)C(=O)N[C@@H](CCCCNC(=O)OC(C)(C)C)C(=O)N[C@H](C(=O)N[C@@H](CC(C)C)C(=O)N[C@@H](CCCCNC(=O)OC(C)(C)C)C(=O)NCC(=O)N[C@@H](C)C(=O)N[C@H](C(=O)N[C@@H](CCCCNC(=O)OC(C)(C)C)C(=O)NCC(=O)N[C@@H](C)C(=O)N[C@H](C(=O)N[C@@H](C)C(=O)N[C@H](C(=O)N[C@@H](C)C(=O)N[C@@H](CCCCNC(=O)OC(C)(C)C)C(=O)N[C@@H](CCSC)C(=O)N[C@H](C(N)=O)C(C)C)C(C)C)[C@@H](C)CC)[C@@H](C)CC)C(C)C | 11.4
2 | C=CCCC[C@](C)(NC(=O)[C@H](CC(=O)OC(C)(C)C)NC(=O)[C@H](CCCCNC(=O)OC(C)(C)C)NC(=O)[C@@H](NC(=O)[C@](C)(CCCC=C)NC(=O)[C@@H]1CCCN1C(=O)[C@H](COC(C)(C)C)NC(=O)[C@H](CC(C)C)NC(=O)[C@H](CCCCNC(=O)OC(C)(C)C)NC(=O)[C@@H](NC(=O)OCC1c2ccccc2-c2ccccc21)[C@@H](C)CC)[C@@H](C)OC(C)(C)C)C(=O)N[C@@H](CC(C)C)C(=O)N[C@@H](CCCCNC(=O)OC(C)(C)C)C(=O)N[C@@H](CCCCNC(=O)OC(C)(C)C)C(=O)N[C@H](C(=O)N[C@@H](CC(C)C)C(=O)N[C@@H](CCCCNC(=O)OC(C)(C)C)C(=O)NCC(=O)N[C@@H](C)C(=O)N[C@H](C(=O)N[C@@H](CCCCNC(=O)OC(C)(C)C)C(=O)NCC(=O)N[C@@H](C)C(=O)N[C@H](C(=O)N[C@@H](C)C(=O)N[C@H](C(=O)N[C@@H](C)C(=O)N[C@@H](CCCCNC(=O)OC(C)(C)C)C(=O)N[C@@H](CCSC)C(=O)N[C@H](C(N)=O)C(C)C)C(C)C)[C@@H](C)CC)[C@@H](C)CC)C(C)C | 6.43
3 | C=CCCC[C@](C)(NC(=O)CNC(=O)[C@H](CCCCNC(=O)OC(C)(C)C)NC(=O)[C@@H](NC(=O)[C@H](C)NC(=O)CNC(=O)[C@H](CCCCNC(=O)OC(C)(C)C)NC(=O)[C@H](CC(C)C)NC(=O)[C@@H](NC(=O)[C@H](CCCCNC(=O)OC(C)(C)C)NC(=O)[C@H](CCCCNC(=O)OC(C)(C)C)NC(=O)[C@H](CC(C)C)NC(=O)[C@H](CC(=O)NC(c1ccccc1)(c1ccccc1)c1ccccc1)NC(=O)[C@H](CC(=O)OC(C)(C)C)NC(=O)[C@H](CCCCNC(=O)OC(C)(C)C)NC(=O)[C@@H](NC(=O)[C@H](CCC(=O)OC(C)(C)C)NC(=O)[C@@H]1CCCN1C(=O)[C@H](COC(C)(C)C)NC(=O)[C@H](CC(C)C)NC(=O)[C@H](CCCCNC(=O)OC(C)(C)C)NC(=O)[C@@H](NC(=O)OCC1c2ccccc2-c2ccccc21)[C@@H](C)CC)[C@@H](C)OC(C)(C)C)C(C)C)[C@@H](C)CC)C(=O)N[C@H](C(=O)N[C@@H](C)C(=O)N[C@H](C(=O)N[C@@](C)(CCCC=C)C(=O)N[C@@H](CCCCNC(=O)OC(C)(C)C)C(=O)N[C@@H](CCSC)C(=O)N[C@H](C(N)=O)C(C)C)C(C)C)[C@@H](C)CC | 13.1
4 | C=CCCC[C@](C)(NC(=O)[C@@H](NC(=O)[C@H](C)NC(=O)CNC(=O)[C@H](CCCCNC(=O)OC(C)(C)C)NC(=O)[C@H](CC(C)C)NC(=O)[C@@H](NC(=O)[C@H](CCCCNC(=O)OC(C)(C)C)NC(=O)[C@H](CCCCNC(=O)OC(C)(C)C)NC(=O)[C@H](CC(C)C)NC(=O)[C@H](CC(=O)NC(c1ccccc1)(c1ccccc1)c1ccccc1)NC(=O)[C@H](CC(=O)OC(C)(C)C)NC(=O)[C@H](CCCCNC(=O)OC(C)(C)C)NC(=O)[C@@H](NC(=O)[C@H](CCC(=O)OC(C)(C)C)NC(=O)[C@@H]1CCCN1C(=O)[C@H](COC(C)(C)C)NC(=O)[C@H](CC(C)C)NC(=O)[C@H](CCCCNC(=O)OC(C)(C)C)NC(=O)[C@@H](NC(=O)OCC1c2ccccc2-c2ccccc21)[C@@H](C)CC)[C@@H](C)OC(C)(C)C)C(C)C)[C@@H](C)CC)C(=O)NCC(=O)N[C@@H](C)C(=O)N[C@H](C(=O)N[C@@](C)(CCCC=C)C(=O)N[C@H](C(=O)N[C@@H](C)C(=O)N[C@@H](CCCCNC(=O)OC(C)(C)C)C(=O)N[C@@H](CCSC)C(=O)N[C@H](C(N)=O)C(C)C)C(C)C)[C@@H](C)CC | 14.1
5 | C=CCCC[C@](C)(NC(=O)[C@H](CCCCNC(=O)OC(C)(C)C)NC(=O)[C@H](CC(C)C)NC(=O)[C@@H](NC(=O)[C@H](CCCCNC(=O)OC(C)(C)C)NC(=O)[C@H](CCCCNC(=O)OC(C)(C)C)NC(=O)[C@H](CC(C)C)NC(=O)[C@H](CC(=O)NC(c1ccccc1)(c1ccccc1)c1ccccc1)NC(=O)[C@H](CC(=O)OC(C)(C)C)NC(=O)[C@H](CCCCNC(=O)OC(C)(C)C)NC(=O)[C@@H](NC(=O)[C@H](CCC(=O)OC(C)(C)C)NC(=O)[C@@H]1CCCN1C(=O)[C@H](COC(C)(C)C)NC(=O)[C@H](CC(C)C)NC(=O)[C@H](CCCCNC(=O)OC(C)(C)C)NC(=O)[C@@H](NC(=O)OCC1c2ccccc2-c2ccccc21)[C@@H](C)CC)[C@@H](C)OC(C)(C)C)C(C)C)C(=O)N[C@@H](C)C(=O)N[C@H](C(=O)N[C@@H](CCCCNC(=O)OC(C)(C)C)C(=O)N[C@@](C)(CCCC=C)C(=O)N[C@@H](C)C(=O)N[C@H](C(=O)N[C@@H](C)C(=O)N[C@H](C(=O)N[C@@H](C)C(=O)N[C@@H](CCCCNC(=O)OC(C)(C)C)C(=O)N[C@@H](CCSC)C(=O)N[C@H](C(N)=O)C(C)C)C(C)C)[C@@H](C)CC)[C@@H](C)CC | 18.5

Source: article PMC9081086, “Stapling strategy enables improvement of antitumor activity and proteolytic stability of host-defense peptide hymenochirin-1B” (RSC Advances, 2018)
